Test results as given in publication PMC12392461, “Beyond Estrogenicity: A Comparative Assessment of Bisphenol A and Its Alternatives in In Vitro Assays Questions Safety of Replacements” (Environmental Science & Technology, 2025).
Where two headings read alike, the source gives them in different places.

Experiments:
H4IIe (AhR CALUX) = details: for IC10, linear: linear model fit; for logIC10: log-logistic model fit
Experimental: (§1) Cell culture conditions and bioassay protocols including response detection are provided in Text S2.1–2.4 and Table S3. − Cell viability was determined from cell confluency using an IncuCyte S3 Live-Cell Analysis System (Sartorius AG, Essen, Germany) before and after exposure, except for SH-SY5Y cells (live–dead staining with Nuclear Green LcS1 and propidium iodide, Abcam, UK). For metabolic activation experiments, cell viability was assessed using the ToxBLAzer DualScreen Kit (Thermo Fisher Scientific) to capture the remaining toxicity in ERα-UAS-bla GripTite after treatment with the aCYP catalyst (details in Text S2.4).
(§2) For ARE, the concentration that triggered an induction ratio of 1.5 (ECIR1.5) was used as the benchmark value, as detailed in Text S2.5. IC10 values also served as a threshold for data analysis in all assays; only concentrations below IC10 were considered when deriving EC10 or ECIR1.5.
(§3) We measured the cytotoxicity of BPA and its alternatives in HEK293H (PPARγ), HEK293T (ERα), H4IIe (AhR CALUX), MCF7 (ARE/MMP), and differentiated SH-SY5Y cells (Table S6). […]
(§4) S2.2: Cell Seeding and Incubation. For all bioassays, cell suspensions in the respective assay medium were dispensed into each well of 384-well plates using a MultiFlo Dispenser (Biotek, (now Agilent), Winooski, VT, U.S.). After seeding, the plates were incubated at 37° C and 5% CO₂ for […]. The final cell densities and plate types were as follows: Black poly-D-lysine […]
(§5) 6500 cells/well, ERα: 5000 cells/well. White 384-well plates with a clear bottom (Product No.
(§6) NYC, U.S.) for AhR: 3250 cells/well. Black Collagen I coated plates were used (Product No.
(§7) S2.3: Chemical Dosing and Assay Analysis Procedures. The dosing procedure and high-throughput assay workflow have been described in detail before. 9 The dosing concentrations […]
(§8) Stock solutions were then either added directly to the respective cell culture medium or evaporated under nitrogen, followed by replenishment with fresh medium. The final solvent content in each well was kept below 1% for methanol, 0% for acetonitrile.
(§9) Dosing plates were prepared as 11 -step serial dilutions using a Hamilton Microlab Star robotic system (Hamilton, Bonaduz, Switzerland), and chemicals were dosed in duplicates by transferring 10 μL twice from the dosing plates to the cell plates . After quantifying cell confluency as described in S2. 4., the exposed cells were incubated at 37° C and 5% CO₂ for an additional 24 h. All chemicals were tested in all assays with at least three independent […]
(§10) S2.4: Cell Viability Measurement s and bioanalytical protocols . The confluency as a measure of cell viability was determined with an IncuCyte S3 Live -Cell Analysis System (Sartorius AG, Essen, Germany). With this method the confluency of cells in a microscopy image are normalized to control wells without cells and compared before and after 24 hours of exposure.
(§11) This method has been described previously 13. […]

MCF7 (ARE/MMP) = details: for IC10, linear transformed / IC10, linear / logIC10: dosing range all
Experimental: as §1, §2, §3, §4, §5, §6, §7, §8, §9, §10, §11

HEK293H (PPARγ) = details: for IC10, linear transformed / IC10, linear / logIC10: PPARγ bioassay cytotoxicity; for IC10, linear: linear model; for logIC10: log-logistic model; for Toxic ratio (TR) TRPPARγ: against baseline cytotoxicity; for IC10, HEK293, PPARγ: cytotoxicity, HEK293 (PPARγ assay cells)
Experimental: as §1, §2, §3, §4, §5, §6, §7, §8, §9, §10, §11

HEK293T (ERα) = details: for IC10, linear: linear model fit; for logIC10: log-logistic model fit
Experimental: as §1, §2, §3, §4, §5, §6, §7, §8, §9, §10, §11

[1] = biological target: T1, Peroxisome proliferator-activated receptor γ (Homo sapiens, UniProt P37231); assay: cell-based; details: for EC10, PPARγ (M): 10% of maximum effect of rosiglitazone; for EC10, linear transformed / EC10, linear / logEC10: PPARγ bioassay; for EC10, linear: linear model; for logEC10: log-logistic model; for SR-ScorePPARγ: SR-Score, sigma k=1, x=5; for Specificity ratio (SRbaseline) SRPPARγ: against baseline cytotoxicity; for Specificity ratio (SRcytotoxicity) SRPPARγ: against experimental cytotoxicity; for EC10, PPARγ: effect; for log(1/EC10) PPARγ: input of the ToxPi score, values up to 1.00; for Emax: read-out: Emax%PPARγ
T1 sequence (P37231 238-505 limits assumed): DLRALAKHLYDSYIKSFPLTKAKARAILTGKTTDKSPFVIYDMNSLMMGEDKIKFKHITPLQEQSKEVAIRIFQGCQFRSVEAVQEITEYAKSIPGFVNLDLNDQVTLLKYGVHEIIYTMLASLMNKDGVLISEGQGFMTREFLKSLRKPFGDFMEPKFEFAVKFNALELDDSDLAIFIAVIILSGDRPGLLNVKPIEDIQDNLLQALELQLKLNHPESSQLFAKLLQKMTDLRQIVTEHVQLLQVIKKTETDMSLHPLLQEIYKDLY
Procedure, shortened: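 Reporter cells (ERα-UAS-bla GripTite; PPARγ-UAS-bla) grew 24 h at 37 °C, 5% CO₂ in medium containing 2% charcoal-stripped FBS. Cytotoxicity, tracked as IncuCyte confluency, capped data at IC10 for EC10 derivation. Emax% is the fitted log-logistic maximum expressed against the reference chemical's maximum.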

[2] = Bioassay AhR, cytotoxicity, dosing range all
[3] = Bioassay ARE, cytotoxicity, linear model fit
[4] = Bioassay ARE, cytotoxicity, log-logistic model fit
[5] = MMP bioassay cytotoxicity, linear model
[6] = MMP bioassay cytotoxicity, log-logistic model
[7] = Bioassay ERα, cytotoxicity, dosing range all

O=S(=O)(c1ccc(O)cc1)c1ccc(OCc2ccccc2)cc1 [BPS-MPE, 4-[4-(benzyloxy)benzenesulfonyl]phenol]
IC10, linear transformed (H4IIe (AhR CALUX); [2]): 5.80E-05 | IC10, linear (H4IIe (AhR CALUX); [2]): 5.18E-05 | logIC10 (H4IIe (AhR CALUX); [2]): -4.24 | Toxic ratio (TR) TRAhR (H4IIe (AhR CALUX); against baseline cytotoxicity): 0.68 | IC10, H4IIe, AhR (H4IIe (AhR CALUX); cytotoxicity, H4IIe (AhR assay cells)): 51.8 µM | IC10, linear transformed (MCF7 (ARE/MMP); Bioassay ARE, cytotoxicity): 7.91E-05 | IC10, linear (MCF7 (ARE/MMP); [3]): 1.19E-04 | logIC10 (MCF7 (ARE/MMP); [4]): -4.10 | IC10, linear transformed (MCF7 (ARE/MMP); MMP bioassay cytotoxicity): 1.23E-04 | IC10, linear (MCF7 (ARE/MMP); [5]): 1.88E-04 | logIC10 (MCF7 (ARE/MMP); [6]): -3.91 | Toxic ratio (TR) TRARE (MCF7 (ARE/MMP); against baseline cytotoxicity, ARE readout): 0.45 | Toxic ratio (TR) TRMMP (MCF7 (ARE/MMP); against baseline cytotoxicity, MMP readout): 0.29 | IC10, MCF7, ARE (MCF7 (ARE/MMP); cytotoxicity, MCF7, ARE readout): 79.1 µM | IC10, MCF7, MMP (MCF7 (ARE/MMP); cytotoxicity, MCF7, MMP readout): 123 µM | IC10, linear transformed (HEK293H (PPARγ); dosing range high): 9.04E-06 | IC10, linear (HEK293H (PPARγ); dosing range high): 1.34E-04 | logIC10 (HEK293H (PPARγ); dosing range high): -3.96 | IC10, linear transformed (HEK293H (PPARγ); dosing range low): 1.83E-05 | IC10, linear (HEK293H (PPARγ); dosing range low): 1.11E-05 | logIC10 (HEK293H (PPARγ); dosing range low): -5.06 | Toxic ratio (TR) TRPPARγ (HEK293H (PPARγ)): 0.09 | IC10, HEK293, PPARγ (HEK293H (PPARγ)): 134 µM | IC10, linear transformed (HEK293T (ERα); [7]): 3.17E-05 | IC10, linear (HEK293T (ERα); [7]): 1.12E-04 | logIC10 (HEK293T (ERα); [7]): -4.00 | Toxic ratio (TR) TRERα (HEK293T (ERα); against baseline cytotoxicity): 0.10 | IC10, HEK293, ERα (HEK293T (ERα); cytotoxicity, HEK293 (ERα assay cells)): 112 µM | EC10, PPARγ (M) [1]: 2.35 × 10^–7 M | EC10, linear transformed ([1]; dosing range high): 1.15E-09 | EC10, linear ([1]; dosing range high): 1.01E-07 | logEC10 ([1]; dosing range high): -8.94 | EC10, linear transformed ([1]; dosing range low): 2.35E-07 | EC10, linear ([1]; dosing range low): 4.02E-07 | logEC10 ([1]; dosing range low): -6.63 | SR-ScorePPARγ [1]: 1.00 | Specificity ratio (SRbaseline) SRPPARγ [1]: 49.84 | Specificity ratio (SRcytotoxicity) SRPPARγ [1]: 570.13 | EC10, PPARγ [1]: 0.235 µM | log(1/EC10) PPARγ [1]: 0.94 | Emax [1]: 25%

Cc1ccc(S(=O)(=O)NC(=O)Nc2ccc(Cc3ccc(NC(=O)NS(=O)(=O)c4ccc(C)cc4)cc3)cc2)cc1 [BTUM, 4,4'-Bis(p-tolylsulfonylureido)diphenylmethane]
IC10, linear (H4IIe (AhR CALUX); [2]): no cytotoxicity | logIC10 (H4IIe (AhR CALUX); [2]): no cytotoxicity | IC10, linear (MCF7 (ARE/MMP); [3]): no cytotoxicity | logIC10 (MCF7 (ARE/MMP); [4]): no cytotoxicity | IC10, linear (MCF7 (ARE/MMP); [5]): no cytotoxicity | logIC10 (MCF7 (ARE/MMP); [6]): no cytotoxicity | IC10, linear (HEK293H (PPARγ); dosing range all): 4.34E-05 | logIC10 (HEK293H (PPARγ); dosing range all): -4.51 | Toxic ratio (TR) TRPPARγ (HEK293H (PPARγ)): 0.91 | IC10, HEK293, PPARγ (HEK293H (PPARγ)): 31 µM | IC10, linear (HEK293T (ERα); [7]): 3.66E-05 | logIC10 (HEK293T (ERα); [7]): no cytotoxicity | EC10, PPARγ (M) [1]: 2.56 × 10^–7 M | EC10, linear ([1]; dosing range all): 2.64E-07 | logEC10 ([1]; dosing range all): -6.59 | SR-ScorePPARγ [1]: 1.00 | Specificity ratio (SRbaseline) SRPPARγ [1]: 110.22 | Specificity ratio (SRcytotoxicity) SRPPARγ [1]: 121.09 | EC10, PPARγ [1]: 0.256 µM | log(1/EC10) PPARγ [1]: 0.93 | Emax [1]: 47% | SR (PPARγ) ([1]; specificity ratio): 121
